Data set [1] concerns Diamond Back Moth (Plutella xylostella Linné). The data set is described as follows: Insecticidal test for diamond back moth. The class given is in vivo. The following applies: 144 h, cabbage leaves dipped in 500 ppm aqueous emulsion, second larvae, 25° C., after 6 days. The procedure: The leaves of cabbage were dipped in a 500 ppm aqueous emulsion of a compound of the invention for about 10 seconds. After having been dried in air, the thus-treated leaves were put into laboratory dishes. Ten (10) second larvae of diamond back moth (Plutella xylostella) were released in each dish. Each dish was covered with a perforated cover, and stored in a thermostatic chamber at 25° C. […] Each compound was tested in that manner for two groups of dishes.

For data set [2], the system named is Cucurbit Leaf Beetles (Aulacophora femoralis Motschulsky). As to the kind of experiment: Insecticidal test for cucurbit leaf beetles. The class given is in vivo. The following applies: 144 h, cucumber leaves dipped in 500 ppm solution, second instar nymphae, 25° C., after 6 days. The procedure: The leaves of cucumbers were dipped in this chemical solution for about 10 seconds, dried in air, and put into a laboratory dish. Ten (10) second instar nymphae of cucurbit leaf beetles (Aulacophora femoralis) were released in each dish. Each dish was covered with a cover, and stored in a thermostatic chamber at 25° C. […] Each compound was tested in that manner for two groups of dishes.

Data set [3] deals with Green Peach Aphids (Myzus persicae Sulzer). As to the kind of experiment: Insecticidal test for green peach aphids. The class given is in vivo. The following applies: 144 h, 500 ppm spray (2.5 mg/cm^2) on cabbage leaf, apterous adults, larvae and adults counted after 6 days. The protocol: Moistured filter paper was placed in each laboratory glass dish having an inner diameter of 3 cm, and a leaf cabbage having the same diameter as that of the dish was put on the filter paper. Four female, apterous adults of green peach aphids (Myzus persicae) were put on the cabbage leaf. Fllowing day, a chemical sample (2.5 mg/cm^2) was sprayed over the dishes, using a rotary sprinkler. […] After 6 days passed, the insects in each cylinder were observed, and mortality of the insects (larvae and adults) was determined according to the following equation. Each compound was tested in that manner for two groups of dishes. Mortality (%)=[number of insect killed/(number of insect killed+number of living insect)]×100

Data set [4] concerns Two-Spotted Spider Mites (Tetranychus urticae Koch). The data set is described as follows: whole plant or invertebrate. The class given is in vivo. The following applies: foliar, 500 ppm solution sprayed 2 ml/cup on kidney bean leaf discs, larvae, 25° C., after 96 hours. The procedure: The leaves of kidney bean plants were punched into 3 cm-diameter discs, using a leaf punch, and put onto moistured filter paper in a 7 cm-diameter styrol cup. Ten (10) larvae of two-spotted spider mites (Tetranychus urticae) were put to each leaf. […] The solution was sprayed over each cup in an amount of 2 ml/cup, using a rotary sprinkler, and the cups were stored in a thermostatic chamber at 25° C. […] Each compound was tested in that manner for two groups of cups.

For data set [5], the system named is Brown Rice Planthopper (Nilaparvata lugens Stal). The data set is described as follows: Insecticidal test for brown rice planthopper. Format: in vivo. The following applies: 144 h, 500 ppm solution applied to rice stems and leaves, second instar nymphae, after 6 days. An excerpt:
The stems and leaves of rice-plants in 1/20,000 are pot were sufficiently applied with the resulting solution. After the thus-applied chemical solution was dried in air, each pot was covered with a cylindrical cover. Ten (10) second instar nymphae of brown rice planthoppers (Nilaparvata lugens) were released in each pot. After having been thus covered, the pots were stored in a thermostatic chamber. After 6 days passed, the insects in each pot were observed, and the mortality thereof was determined according to the following equation. Each compound was tested in that manner for two groups of pots. Mortality (%)=([number of insect killed/(number of insect killed+number of living insect)]×100

SMILES strings stand for the structures.

In turn, `Cn1nc(C(F)(F)F)c(C(O)=C(Br)n2ccc(-c3c(F)cccc3F)n2)c1Cl` had a melting point of 123 to 125 °C.

Take `Cn1nc(Cl)c(C(=O)C(Br)c2ccccc2)c1Cl` (stereo not shown): the melting point lay within 74.5 to 75.5 °C.

For the compound `Cn1nc(Cl)c(C(O)=C(C#N)n2ccc(-c3c(F)cccc3F)n2)c1Cl` [I-40, 2-{3-(2,6-difluorophenyl)pyrazol-1-yl}-3-(1-methyl-3,5-dichloropyrazol-4-yl)-3-hydroxyacrylonitrile], the mortality at 500 ppm in data set [1] is no less than 80%; in data set [2] it was 100%; in data set [3], no less than 80%; in data set [4], no less than 80%.

In the case of `Cn1nc(Cl)c(C(O)=C(C#N)c2csc(-c3ccccc3)n2)c1Cl` [II-1, 3-(1-methyl-3,5-dichloropyrazol-4-yl)-2-(2-phenylthiazol-4-yl)-3-hydroxyacrylonitrile], the values for the mortality at 500 ppm in data set [1], in data set [5] and in data set [2] were no less than 80%, no less than 80% and 100%, respectively.

For the compound `Cc1nc(C(F)(F)F)c(C(OC(=O)c2ccccc2)=C(C#N)c2csc(C(C)(C)C)n2)s1` [II-75, 2-(2-tert-butylthiazol-4-yl)-3-(2-methyl-4-trifluoromethylthiazol-5-yl)-3-benzoyloxyacrylonitrile], the mortality at 500 ppm in data set [1], in data set [5], in data set [3] and in data set [4] was no less than 80% each time.

`Cn1nc(C(F)(F)F)c(C(OC(=O)C(C)(C)C)=C(C#N)c2nc(C(C)(C)C)cs2)c1Cl` [III-6, 3-(1-methyl-3-trifluoromethyl-5-chloropyrazol-4-yl)-2-(4-tert-butylthiazol-2-yl)-3-pivaloyloxyacrylonitrile]: the mortality at 500 ppm in data set [1] is no less than 80%; in data set [5], no less than 80%; in data set [2], 100%; in data set [3] it was no less than 80%; in data set [4], no less than 80%.

Consider `Cn1nc(Cl)c(C(=O)OC(=C(C#N)c2ccc(C(F)(F)F)cc2)c2c(Cl)nn(C)c2Cl)c1Cl` [IV-5, 2-(4-trifluoromethylphenyl)-3-(1-methyl-3,5-dichloropyrazol-4-yl)-3-(1-methyl-3,5-dichloropyrazole-4-carbonyloxy)acrylonitrile], for which the mortality at 500 ppm in data set [4] is no less than 80%.

For the compound `Cn1nc(Cl)c(C(O)=C(C#N)c2ccc(C(C)(C)C)cc2)c1Cl` [IV-18, 2-(4-tert-butylphenyl)-3-(1-methyl-3,5-dichloropyrazol-4-yl)-3-hydroxyacrylonitrile], the mortality at 500 ppm in data set [4] was no less than 80%.

For `Cn1nc(C(F)(F)F)c(C(OC(=O)C(C)(C)C)=C(C#N)c2ccc(C(C)(C)C)cc2)c1Cl` [IV-24, 2-(4-tert-butylphenyl)-3-(1-methyl-3-trifluoromethyl-5-chloropyrazol-4-yl)-3-pivaloyloxyacrylonitrile], the mortality at 500 ppm in data set [4] was no less than 80%.

Compound `COC(=O)OC(=C(C#N)c1ccc(C(C)(C)C)cc1)c1c(Cl)nn(C)c1Cl` [IV-36, 2-(4-tert-butylphenyl)-3-(3,5-dichloro-1-methylpyrazol-4-yl)-3-methoxycarbonyloxyacrylonitrile] yielded a mortality at 500 ppm in data set [4] of no less than 80%.

Regarding `Cn1nc(Cl)c(C(O)=C(C#N)c2coc(C(C)(C)C)n2)c1Cl` [V-40, 2-{2-tert-butyloxazol-4-yl}-3-(3,5-dichloro-1-methyl-pyrazol-4-yl)-3-hydroxyacrylonitrile], the values for the mortality at 500 ppm in data set [2] and in data set [4] were 100% and no less than 80%, respectively.

For `CCOCOC(=C(C#N)c1coc(C(C)(C)C)n1)c1c(C(F)(F)F)nn(C)c1Cl` [V-44, 2-(2-tert-butyloxazol-4-yl)-3-(5-chloro-1-methyl-3-trifluoromethylpyrazol-4-yl)-3-ethoxymethoxyacrylonitrile], the mortality at 500 ppm in data set [4] was no less than 80%.
